Measured values published in ChEMBL document CHEMBL1201862, “PubChem BioAssay data set” (2004).
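Growth conditions: 96-well plates. Treatment: test compound, 48 hours, 5 concentrations. Analysis: linear interpolation between bracketing concentrations; unreached endpoints set to highest concentration. At the GI50, growth is halved.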 Active and inactive are the calls of the source. Cut-off read from the data, not from the text of the source: active = GI50 up to about 1.1 µM and inactive = higher.

Experiments:
Assay in all cases: NCI anticancer screen, dose series, 48 h
T47D = system: T47D
Hs-578T = system: Hs-578T
RXF 393 = system: RXF 393
HCT-116 = system: HCT-116
NCI-H460 = system: NCI-H460
SNB-75 = system: SNB-75
NCI-H226 = system: NCI-H226
SW-620 = system: SW-620
SF-539 = system: SF-539
OVCAR-8 = system: OVCAR-8
OVCAR-4 = system: OVCAR-4
ACHN = system: ACHN
MDA-MB-231 = system: MDA-MB-231
MCF7 = system: MCF7
PC-3 = system: PC-3
A498 = system: A498
LOX IMVI = system: LOX IMVI
EKVX = system: EKVX
786-0 = system: 786-0
SN12C = system: SN12C
UACC-62 = system: UACC-62
OVCAR-3 = system: OVCAR-3
U-251 = system: U-251
CAKI-1 = system: CAKI-1
SK-MEL-28 = system: SK-MEL-28
KM12 = system: KM12
SK-OV-3 = system: SK-OV-3
Malme-3M = system: Malme-3M
A549 = system: A549
HL-60 = system: HL-60
IGROV-1 = system: IGROV-1
COLO 205 = system: COLO 205
HOP-62 = system: HOP-62
HOP-92 = system: HOP-92
TK-10 = system: TK-10
SF-295 = system: SF-295
HCT-15 = system: HCT-15
SK-MEL-5 = system: SK-MEL-5
BT-549 = system: BT-549
SNB-19 = system: SNB-19
UO-31 = system: UO-31
DU-145 = system: DU-145
HCC 2998 = system: HCC 2998
MDA-MB-435 = system: MDA-MB-435
SK-MEL-2 = system: SK-MEL-2
HT-29 = system: HT-29
UACC-257 = system: UACC-257
NCI-H23 = system: NCI-H23
OVCAR-5 = system: OVCAR-5
SR = system: SR
SF-268 = system: SF-268
RPMI-8226 = system: RPMI-8226
K562 = system: K562
MOLT-4 = system: MOLT-4
NCI-H522 = system: NCI-H522
NCI/ADR-RES = system: NCI/ADR-RES
M14 = system: M14
CCRF-CEM = system: CCRF-CEM
MDA-N = system: MDA-N

CCOC(=O)C1C2C1C1C(C(=O)OCC)C21 (centres undefined)
GI50 (T47D): 49.2 µM (inactive) | GI50 (Hs-578T): > 100 µM (inactive) | GI50 (RXF 393): 81.8 µM (inactive) | GI50 (HCT-116): > 100 µM (inactive) | GI50 (NCI-H460): > 100 µM (inactive) | GI50 (SNB-75): > 100 µM (inactive) | GI50 (NCI-H226): > 100 µM (inactive) | GI50 (SW-620): > 100 µM (inactive) | GI50 (SF-539): > 100 µM (inactive) | GI50 (OVCAR-8): > 100 µM (inactive) | GI50 (OVCAR-4): > 100 µM (inactive) | GI50 (ACHN): > 100 µM (inactive) | GI50 (MDA-MB-231): > 100 µM (inactive) | GI50 (MCF7): 51.3 µM (inactive) | GI50 (PC-3): > 100 µM (inactive) | GI50 (A498): > 100 µM (inactive) | GI50 (LOX IMVI): > 100 µM (inactive) | GI50 (EKVX): > 100 µM (inactive) | GI50 (786-0): > 100 µM (inactive) | GI50 (SN12C): > 100 µM (inactive) | GI50 (UACC-62): > 100 µM (inactive) | GI50 (OVCAR-3): > 100 µM (inactive) | GI50 (U-251): > 100 µM (inactive) | GI50 (CAKI-1): > 100 µM (inactive) | GI50 (SK-MEL-28): > 100 µM (inactive) | GI50 (KM12): > 100 µM (inactive) | GI50 (SK-OV-3): > 100 µM (inactive) | GI50 (Malme-3M): > 100 µM (inactive) | GI50 (A549): > 100 µM (inactive) | GI50 (HL-60): 63.8 µM (inactive) | GI50 (IGROV-1): > 100 µM (inactive) | GI50 (COLO 205): > 100 µM (inactive) | GI50 (HOP-62): > 100 µM (inactive) | GI50 (HOP-92): > 100 µM (inactive) | GI50 (TK-10): > 100 µM (inactive) | GI50 (SF-295): > 100 µM (inactive) | GI50 (HCT-15): > 100 µM | GI50 (SK-MEL-5): > 100 µM (inactive) | GI50 (BT-549): > 100 µM (inactive) | GI50 (SNB-19): > 100 µM (inactive) | GI50 (UO-31): > 100 µM (inactive) | GI50 (DU-145): > 100 µM (inactive) | GI50 (HCC 2998): > 100 µM (inactive) | GI50 (MDA-MB-435): > 100 µM (inactive) | GI50 (SK-MEL-2): > 100 µM (inactive) | GI50 (HT-29): 57.5 µM (inactive) | GI50 (UACC-257): 61 µM (inactive) | GI50 (NCI-H23): > 100 µM (inactive) | GI50 (OVCAR-5): > 100 µM (inactive) | GI50 (SR): 52 µM (inactive) | GI50 (SF-268): > 100 µM (inactive) | GI50 (RPMI-8226): 50.4 µM (inactive) | GI50 (K562): > 100 µM (inactive) | GI50 (MOLT-4): > 100 µM (inactive) | GI50 (NCI-H522): > 100 µM (inactive) | GI50 (NCI/ADR-RES): > 100 µM (inactive) | GI50 (M14): > 100 µM (inactive) | GI50 (CCRF-CEM): > 100 µM (inactive) | GI50 (MDA-N): > 100 µM (inactive)
